Structures are written as SMILES.

human SGLT1, sequence (P13866 whole entry): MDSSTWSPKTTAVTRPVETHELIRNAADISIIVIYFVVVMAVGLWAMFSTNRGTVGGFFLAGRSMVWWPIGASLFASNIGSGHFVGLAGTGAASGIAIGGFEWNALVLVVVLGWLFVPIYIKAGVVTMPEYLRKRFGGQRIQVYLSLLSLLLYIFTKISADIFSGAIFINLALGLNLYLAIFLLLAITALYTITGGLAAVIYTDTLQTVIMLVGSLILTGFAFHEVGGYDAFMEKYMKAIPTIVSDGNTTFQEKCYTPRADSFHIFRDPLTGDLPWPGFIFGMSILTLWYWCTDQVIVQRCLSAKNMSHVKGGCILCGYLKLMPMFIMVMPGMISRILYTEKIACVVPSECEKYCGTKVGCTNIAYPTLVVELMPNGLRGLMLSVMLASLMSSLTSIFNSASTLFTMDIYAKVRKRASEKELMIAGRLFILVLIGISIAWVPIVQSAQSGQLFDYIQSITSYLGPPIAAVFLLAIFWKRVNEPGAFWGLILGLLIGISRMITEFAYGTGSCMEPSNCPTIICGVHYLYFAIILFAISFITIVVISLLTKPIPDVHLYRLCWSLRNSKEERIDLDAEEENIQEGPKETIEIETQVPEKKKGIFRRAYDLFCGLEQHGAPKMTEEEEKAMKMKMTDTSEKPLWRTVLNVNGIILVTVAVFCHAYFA

For one data set, the target named is human SGLT1 (Homo sapiens (Human), UniProt P13866). Briefly: SGLT1 inhibitory activity: intracellular uptake of 14C-AMG in human SGLT1-stably-expressing CHO-K1 cell line. The format is cell-based. The settings on record: human SGLT1-stably-expressing CHO-K1 cells, 14C-AMG uptake; read-out: hSGLT1 IC50. Here is the method:
SGLT1 inhibitory activities of test compounds (IC50 values) were calculated based on the amount of intracellular uptake of labelled α-methyl-D-glucopyranoside (^14C-AMG) transported by SGLT1.
1) Formation of Human SGLT1-Expressing Plasmid
A DNA fragment containing human SGLT1 was amplified by PCR (Polymerase Chain Reaction) using pCMV6-hSGLT1 (OriGene) as a template. In the human SGLT1, NheI recognition and cleavage sequence was added to the upstream of Kozac consensus sequence derived from a vector, and a stop codon, TAG, and SalI recognition and cleavage sequence were added to the immediate downstream of the protein-translating region of human SGLT1. The purified DNA fragment was cleaved by restriction enzymes NheI and SalI, followed by ligation with pcDNA3.1 (+) which was cleaved by NheI and XhoI, thereby forming human SGLT1-expressing plasmid, pcDNA-hSGLT1. The nucleic acid sequence of human SGLT1 inserted into a vector was completely identical to the protein-translated region of human SGLT1 sequence (Accession number NM_000343) registered in GenBank, and the sequence of the portion connected to the vector was as expected.
2) Establishment of Human SGLT1-Stably-Expressing Cell Lines
Human SGLT-expressing plasmid, pcDNA-hSGLT1, was transfected into each CHO-K1 cell by Lipofectamine 2000 (Invitrogen) and cultured in the presence of G418 (Nacalai Tesque) to select drug-resistant cell lines. A cell line having the highest ratio (S/B ratio) of the amount of intracellular uptake of ^14C-AMG per cell to the amount of intracellular uptake of ^14C-AMG after treatment with a SGLT inhibitor, phlorizin, was selected as a human SGLT1-stably-expressing cell line from the drug-resistant cell lines.
3) Assessment of SGLT1 Inhibitory Activity
Human SGLT1-stably-expressing cell lines were seeded at 5×10^4 cells/well on BioCoat™ Poly-D-Lysine 96 well plate with Lid (Becton, Dickinson and Company) and cultured at 37° C. under 5% CO2 overnight. The medium was replaced with 100 μL/well of Na(−) buffer (140 mM choline chloride, 2 mM KCl, 1 mM MgCl2, 1 mM CaCl2, 10 mM HEPES, 5 mM Tris, pH 7.4), and then the mixture was let stand at 37° C. under 5% CO2 for 20 minutes. After removal of Na(−) buffer, thereto was added 40 μL/well of a test compound solution prepared with Na(+) buffer (140 mM NaCl, 2 mM KCl, 1 mM MgCl2, 1 mM CaCl2, 10 mM HEPES, 5 mM Tris, pH 7.4) comprising BSA. Then, thereto was added 40 μL/well of Na(+) buffer comprising 8 kBq of ^14C-AMG and 2 mM AMG, and the mixture was mixed well. For a blank, 40 μL/well of Na(−) buffer comprising BSA was added, and in addition, 40 μL/well of Na(−) buffer comprising 8 kBq of ^14C-AMG and 2 mM AMG was added, and the mixture was mixed well. After incubation by being let stand for 1 hour at 37° C. under 5% CO2, cells were washed twice with 100 μL/well of ice-cooled wash buffer (100 mM AMG, 140 mM choline chloride, 2 mM KCl, 1 mM MgCl2, 1 mM CaCl2, 10 mM HEPES, 5 mM Tris, pH 7.4) to terminate the reaction. A cell lysate was prepared by addition of 50 μL/well of 0.2N aqueous NaOH solution. In the assessment for the uptake ability of ^14C-AMG, the total amount of the cell lysate was transferred to OptiPlate 96 (Perkin-Elmer) with 100 μL/well of MicroScint-40 (Perkin-Elmer) dispensed and ^14C of CPM was measured with TOPCOUNT NXT (Perkin-Elmer).
Data was calculated by deducting the average value of CPM for blank well from the average value of CPM for each well treated. An inhibition rate for each test compound in each concentration was calculated from the following equation: [(A−B)/A]×100 wherein A is data for a solvent control and B is data for treatment with each test compound.
On to `C[C@H]1C(=O)NC[C@@H]1C(=O)Nc1cc(-c2cc(F)cc(OC(C)(C)C(F)(F)F)c2)n(-c2cnc(C(F)(F)F)nc2)n1` [Example 1, (3R,4R)—N-(5-(3-fluoro-5-((1,1,1-trifluoro-2-methylpropan-2-yl)oxy)phenyl)-1-(2-(trifluoromethyl)pyrimidin-5-yl)-1H-pyrazol-3-yl)-4-methyl-5-oxopyrrolidine-3-carboxamide], for which the IC50 worked out at 1.9 nM.

Turning to `C[C@H]1C(=O)NC[C@@H]1C(=O)Nc1cc(-c2cc(F)cc(OC(F)(F)F)c2)n(-c2cncc(F)c2)n1` [Example 2, (3R,4R)—N-(5-(3-fluoro-5-(trifluoromethoxy)phenyl)-1-(5-fluoropyridin-3-yl)-1H-pyrazol-3-yl)-4-methyl-5-oxopyrrolidine-3-carboxamide], the IC50 was found to be 14 nM.

Regarding `C[C@H]1C(=O)NC[C@@H]1C(=O)Nc1cc(-c2cc(F)cc(OC(F)(F)F)c2)n(-c2cncc(C(F)(F)F)c2)n1` [Example 3], the IC50 came out at 8.6 nM.

In the case of `C[C@H]1C(=O)NC[C@@H]1C(=O)Nc1cc(-c2cc(F)cc(OC(C)(C)C)c2)n(-c2cnccn2)n1` [Example 4], the 50% inhibitory concentration (IC50) was found to be 23 nM.

On to `C[C@H]1C(=O)NC[C@@H]1C(=O)Nc1cc(-c2cccc(OC(F)(F)F)c2)n(-c2cncc(F)c2)n1` [Example 5], for which the IC50 is 22 nM.

Consider `C[C@H]1C(=O)NC[C@@H]1C(=O)Nc1cc(-c2cccc(OC(F)(F)F)c2)n(-c2cncc(Cl)c2)n1` [Example 6], for which the IC50 stood at 9 nM.

For the molecule `C[C@H]1C(=O)NC[C@@H]1C(=O)Nc1cc(-c2cccc(OC(F)(F)F)c2)n(-c2cncc(C(F)(F)F)c2)n1` [Example 7], the half-inhibitory concentration (IC50) turned out to be 17 nM.

Turning to `C[C@H]1C(=O)NC[C@@H]1C(=O)Nc1cc(-c2cc(F)cc(OC(C)(C)C(F)(F)F)c2)n(-c2ccnc(C(F)(F)F)n2)n1` [Example 9], the IC50 was found to be 73 nM.

With `C[C@H]1C(=O)NC[C@@H]1C(=O)Nc1cc(-c2cc(F)cc(OC(C)(C)C(F)(F)F)c2)n(-c2cncc(C(F)(F)F)c2)n1` [Example 10], the IC50 is 1.2 nM.

In the case of `C[C@H]1C(=O)NC[C@@H]1C(=O)Nc1cc(-c2cc(F)cc(OC(C)(C)C(F)(F)F)c2)n(-c2cccnc2C#N)n1` [Example 11], the IC50 came out at 8.4 nM.

Consider `C[C@H]1C(=O)NC[C@@H]1C(=O)Nc1cc(-c2cc(F)cc(OC(C)(C)C(F)(F)F)c2)n(-c2cccnc2C(F)(F)F)n1` [Example 12], for which the IC50 came out at 4.3 nM.

On to `C[C@H]1C(=O)NC[C@@H]1C(=O)Nc1cc(-c2cc(F)cc(OC(C)(C)C(F)(F)F)c2)n(-c2cnccc2C(F)(F)F)n1` [Example 13], for which the IC50 amounted to 2.9 nM.

As for `C[C@H]1C(=O)NC[C@@H]1C(=O)Nc1cc(-c2cc(F)cc(OC(C)(C)C(F)(F)F)c2)n(-c2cnccc2C#N)n1` [Example 14], the IC50 came out at 3.7 nM.

For the molecule `C[C@H]1C(=O)NC[C@@H]1C(=O)Nc1cc(-c2cc(F)cc(OC(C)(C)C(F)(F)F)c2)n(-c2cnc(C(F)(F)F)cn2)n1` [Example 15], the IC50 came to 6.1 nM.

As for `C[C@H]1C(=O)NC[C@@H]1C(=O)Nc1cc(-c2cc(F)cc(OC(C)(C)C(F)(F)F)c2)n(-c2nccc(C(F)(F)F)n2)n1` [Example 16], the IC50 worked out at 83 nM.

Consider `C[C@H]1C(=O)NC[C@@H]1C(=O)Nc1cc(-c2cc(F)cc(OC(C)(C)C(F)(F)F)c2)n(-c2cncc(Cl)c2)n1` [Example 17], for which the IC50 amounted to 1.3 nM.

With `C[C@H]1C(=O)NC[C@@H]1C(=O)Nc1cc(-c2cc(F)cc(OC(C)(C)C(F)(F)F)c2)n(-c2cncc(C(F)(F)F)n2)n1` [Example 18], the IC50 was 29 nM.

Take `C[C@H]1C(=O)NC[C@@H]1C(=O)Nc1cc(-c2cc(F)cc(OC(C)(C)C(F)(F)F)c2)n(-c2nccnc2C(F)(F)F)n1` [Example 19]: the IC50 came out at 29 nM.

As for `C[C@H]1C(=O)NC[C@@H]1C(=O)Nc1cc(-c2cc(F)cc(OC(C)(C)C(F)(F)F)c2)n(-c2ccc(C(F)(F)F)nc2)n1` [Example 20], the IC50 turned out to be 1.2 nM.

For the molecule `C[C@H]1C(=O)NC[C@@H]1C(=O)Nc1cc(-c2cc(F)cc(OC(C)(C)C(F)(F)F)c2)n(-c2cncc(F)c2)n1` [Example 21], the IC50 amounted to 1.2 nM.

As to `C[C@H]1C(=O)NC[C@@H]1C(=O)Nc1cc(-c2cc(F)cc(OC(C)(C)C(F)(F)F)c2)n(-c2cncnc2)n1` [Example 22], the IC50 is 3.4 nM.

Regarding `C[C@H]1C(=O)NC[C@@H]1C(=O)Nc1cc(-c2cc(F)cc(OC(C)(C)C(F)(F)F)c2)n(-c2cnccn2)n1` [Example 23], the IC50 amounted to 11 nM.

For the molecule `C[C@H]1C(=O)NC[C@@H]1C(=O)Nc1cc(-c2cc(F)cc(OC(C)(C)C(F)(F)F)c2)n(-c2ccc(C(F)(F)F)cn2)n1` [Example 24], the IC50 stood at 5.3 nM.

With `C[C@H]1C(=O)NC[C@@H]1C(=O)Nc1cc(-c2cc(F)cc(OCC(F)(F)F)c2)n(-c2cnc(C(F)(F)F)nc2)n1` [Example 25], the IC50 was found to be 5.7 nM.

On to `C[C@H]1C(=O)NC[C@@H]1C(=O)Nc1cc(-c2cccc(OC(F)(F)F)c2)n(-c2cnc(C(F)(F)F)nc2)n1` [Example 26], for which the IC50 worked out at 47 nM.

For the molecule `C[C@H]1C(=O)NC[C@@H]1C(=O)Nc1cc(-c2cc(F)cc(OC(F)(F)F)c2)n(-c2cnc(C(F)(F)F)nc2)n1` [Example 27], the IC50 is 30 nM.

On to `C[C@H]1C(=O)NC[C@@H]1C(=O)Nc1cc(-c2cc(F)cc(OC(F)(F)F)c2)n(-c2ccc(C(F)(F)F)nc2)n1` [Example 28], for which the IC50 was determined as 7.2 nM.

Consider `C[C@H]1C(=O)NC[C@@H]1C(=O)Nc1cc(-c2cc(F)cc(OC(F)(F)F)c2)n(-c2cncnc2)n1` [Example 29], for which the 50% inhibitory concentration (IC50) amounted to 52 nM.

Regarding `C[C@H]1C(=O)NC[C@@H]1C(=O)Nc1cc(-c2cc(F)cc(OC(F)(F)F)c2)n(-c2cncc(Cl)c2)n1` [Example 30], the IC50 was 2.7 nM.

For `C[C@H]1C(=O)NC[C@@H]1C(=O)Nc1cc(-c2cc(F)cc(OCC(F)(F)F)c2)n(-c2cncc(C(F)(F)F)c2)n1` [Example 31], the IC50 was determined as 5.7 nM.

Consider `C[C@H]1C(=O)NC[C@@H]1C(=O)Nc1cc(-c2cc(F)cc(OCC(F)(F)F)c2)n(-c2cncnc2)n1` [Example 32], for which the IC50 came out at 69 nM.

`C[C@H]1C(=O)NC[C@@H]1C(=O)Nc1cc(-c2cc(F)cc(OCC(F)(F)F)c2)n(-c2ccc(C(F)(F)F)nc2)n1` [Example 33]: the IC50 was found to be 5.9 nM.

Take `C[C@H]1C(=O)NC[C@@H]1C(=O)Nc1cc(-c2cc(F)cc(OCC(F)(F)F)c2)n(-c2cncc(F)c2)n1` [Example 34]: the IC50 amounted to 9.8 nM.

As to `C[C@H]1C(=O)NC[C@@H]1C(=O)Nc1cc(-c2cc(F)cc(OCC(F)(F)F)c2)n(-c2cncc(Cl)c2)n1` [Example 35], the IC50 was 4.6 nM.

In the case of `COc1ncc(-n2nc(NC(=O)[C@H]3CNC(=O)[C@@H]3C)cc2-c2cc(F)cc(OC(C)(C)C(F)(F)F)c2)cn1` [Example 36], the concentration for half-maximal inhibition (IC50) was 1.9 nM.

Regarding `C[C@H]1C(=O)NC[C@@H]1C(=O)Nc1cc(-c2cc(F)cc(OC(C)(C)C(F)(F)F)c2)n(-c2cnc(N(C)C)nc2)n1` [Example 37], the IC50 was found to be 0.98 nM.

As for `Cc1ncc(-n2nc(NC(=O)[C@H]3CNC(=O)[C@@H]3C)cc2-c2cc(F)cc(OC(C)(C)C(F)(F)F)c2)cn1` [Example 38], the 50% inhibitory concentration (IC50) worked out at 4 nM.

The next data set has as its system Escherichia coli WP2uvrA. Briefly: Ames test (reverse mutation test), pre-incubation method, strain WP2uvrA. The format is cell-based. The conditions noted are these: positive control; S9 mix −; dose 0.01 μg/plate. From the text: Ames Test (Reverse Mutation Test)
Two plates per treatment were used.
Consider `NC(=O)C(=Cc1ccc([N+](=O)[O-])o1)c1ccco1` [AF-2, 2-(2-Furyl)-3-(5-nitro-2-furyl)acrylamide, reference compound], for which the “Number of revertant colonies WP2uvrA” value is given as 154.

The record behind these values is patent US10988462B2, “Pyrazole compounds substituted with heteroaryl and pharmaceutical use thereof” (Japan Tobacco Inc., priority 2018, dated 2021).
